The values below come from patent publication US20050070594A1, “Use of angiotensin II receptor antagonists” (Boehringer Ingelheim International GmbH, priority 2003, published 2005).

Experiment [1] concerns the target T1, human PPARgamma-ligand binding domain (LBD) (Homo sapiens, UniProt P37231).
T1 construct: codes for the amino acids 205-505 of the human PPARgamma2 transcription factor; made in house; host or cells: E. coli BL21(DE3), vector pGEX-4T-1
T1 sequence (P37231 205-505): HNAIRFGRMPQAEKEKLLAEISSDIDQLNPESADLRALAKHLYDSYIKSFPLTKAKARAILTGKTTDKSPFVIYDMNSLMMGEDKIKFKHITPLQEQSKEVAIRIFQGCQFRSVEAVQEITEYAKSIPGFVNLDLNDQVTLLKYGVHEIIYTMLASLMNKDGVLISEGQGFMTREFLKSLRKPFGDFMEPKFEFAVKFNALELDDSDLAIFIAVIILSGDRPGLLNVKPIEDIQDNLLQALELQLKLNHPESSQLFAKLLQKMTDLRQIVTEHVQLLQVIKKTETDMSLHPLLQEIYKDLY
The experiment can be described thus: AlphaScreen: recruiting of biotinylated LXXLL peptide of cofactor CBP to GST-PPARgamma-LBD. The class given is biochemical. How it is done: Protein containing the human PPARgamma-ligand binding domain (LBD) is prepared as a GST fusion protein in E.coli and purified by affinity chromatography. […] The fusion protein is expressed in the E.coli strain BL21(DE3) recommended for pGEX vectors after induction with 0.2 mM IPTG for 4 hours at 25° C. The bacteria are pelleted after the induction and frozen in batches in PBS, pH 7.4. After opening up in a French Press, the dissolved GST-PPARgamma-LBD-fusion protein is purified using a GSTrap column (Pharmacia). Elution is carried out by the addition of 20 mM reduced glutathione.
The GST-PPARgamma-LBD-protein fractions are desalinated using a HiTrap desalting column (Pharmacia) and the protein concentration is determined using a standard assay.
The assay buffer consists of 25 mM Hepes pH7.4, 100 mM NaCl,1 mM DTT, 0.1% Tween-20, 0.1% BSA. […] The final DMSO concentration in the assay is 1% (v/v). A 1% DMSO solution is used as the background control (NSB). The measurement is done using a Packard fusion measuring device.
Background: Bead proximity is the source of the signal in Alpha formats.

Experiment [2] concerns Adipose Protein 2 (aP2) expression. The experiment can be described thus: Stimulation of aP2 expression in 3T3-L1 cells (real time PCR). It counts as cell-based, mouse. The settings on record: 10 μmol/L. The source says:
(§1) 3T3-L1 mouse preadipocytes are cultivated in DMEM (Dulbecco's modified eagle medium) with 10% foetal calf serum (FBS). PC12W cells are cultivated in DMEM with 5% FBS and 10% equine serum. In both cases the media contain 1% penicillin/streptomycin.
(§2) The differentiation of adipocytes is induced 2-3 days after cell confluence by adding a differentiating solution. This contains • 1 μmol/L of dexamethasone, • 0.5 mmol/L of 3-isobutyl-1-methylxanthine, • 1.67 μmol/L of insulin, and • 10% FBS.
(§3) Then the cells are stimulated for another 48 hours before finally being analysed (day 4).
RNA isolation, reverse transcription and quantification of gene expression are carried out using an ABI 7000 sequence detection system-for real time PCR (described in Janke et al, Diabetes 51:1699-707, 2002). The endogenous control used for the real time PCR consists of the household genes 18S rRNA and hypoxanthine guanine phosphoribosyl transferase (hprt).

The target in experiment [3] is T2, human PPARgamma-ligand binding domain (LBD) (Homo sapiens, UniProt P37231).
T2 sequence (P37231 205-505): T1 sequence (P37231 205-505)
T2 sequence (P19793 220-461 partner limits assumed): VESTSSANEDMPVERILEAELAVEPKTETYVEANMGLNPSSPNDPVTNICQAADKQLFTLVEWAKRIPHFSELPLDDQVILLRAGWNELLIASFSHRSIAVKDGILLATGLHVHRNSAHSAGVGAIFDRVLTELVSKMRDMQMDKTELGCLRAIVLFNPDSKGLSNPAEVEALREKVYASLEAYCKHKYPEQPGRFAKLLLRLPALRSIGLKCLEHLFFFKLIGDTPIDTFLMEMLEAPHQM
The experiment can be described thus: SPA assay: displacement of 3H-labelled rosiglitazone from GST-PPARgamma-LBD. As to conditions: NSB 217, Bmax 911. The protocol: Protein containing the human PPARgamma-ligand binding domain (LBD) is prepared as a GST fusion protein in E.coli and purified by affinity chromatography. To do this, a DNA section which codes for the amino acids 205-505 of the human PPARgamma2 transcription factor (cf. Genbank entry U79012) is subcloned via the additionally introduced restriction cutting sites BamH I and Xho I into the expression vector pGEX-4T-1 (Amersham) and the sequence of the section is monitored. […] The bacteria are pelleted after the induction and frozen in batches in PBS, pH 7.4. After opening up in a French Press, the dissolved GST-PPARgamma-LBD-fusion protein is purified using a GSTrap column (Pharmacia). Elution is carried out by the addition of 20 mM reduced glutathione. The GST-PPARgamma-LBD-protein fractions are desalinated using a HiTrap desalting column (Pharmacia) and the protein concentration is determined using a standard assay. Protein containing the human RXRalpha ligand binding domain (LBD) is prepared as a His tag fusion protein in E.coli and purified by affinity chromatography. To do this a DNA section which codes for the amino acids 220-461 of the human RXRalpha transcription factor (cf. Genbank entry NM_002957, nt 729-1457) is subcloned via the additionally introduced restriction cutting sites BamH I and Not I into the expression vector pET28c (Novagen) and the sequence of the section is monitored. […] The bacteria are pelleted after the expression and frozen in batches in PBS, pH 7.4. After opening up in a French Press, the dissolved His-RXRalpha-LBD-fusion protein is purified using a HiTrap chelating column (Pharmacia). Elution is carried out using a 500 mM imidazole step. The His-RXRalpha-LBD protein fractions are desalinated using a HiTrap desalting column (Pharmacia) and the protein concentration is determined using a standard assay. A description of the SPA assay format can be found in Mukheriee R et al., J Steroid Biochem Mol Biol (2002) 81:217-225.
On the technique in general: Displacement assays read how much labelled ligand stays bound in the presence of the test substance.

The subject of another experiment is 3T3-L1 adipocytes. Nature of the experiment: Lipid accumulation and differentiation of 3T3-L1 adipocytes (Oil Red-O staining). It counts as cell-based, mouse.
Excerpt: as §1, §2, §3
Cells are washed with PBS and fixed with a 3.7% formaldehyde solution for 2 minutes. After fixing, the cells are stained for 1 hour at ambient temperature with a 0.5% stock solution of Oil Red-O in isopropanol diluted 3:2 with water. After washing, the cells are examined under a light microscope.

Each structure is given as a SMILES string.

With `CCCc1nc2c(C)cc(-c3nc4ccccc4n3C)cc2n1Cc1ccc(-c2ccccc2C(=O)O)cc1` [telmisartan], the “AlphaScreen signal (MW)” value in experiment [1] (1.00E−05 M test substance) turned out to be 847; in experiment [1] (1.00E−06 M test substance), 677; in experiment [1] (1.00E−07 M test substance), 606; in experiment [1] (3.00E−06 M test substance) it was 720; in experiment [1] (3.00E−07 M test substance), 644; in experiment [1] (3.00E−08 M test substance), 642. Further, in experiment [1] (5.00E−05 M test substance), the “AlphaScreen signal (MW)” value is 1111. Moreover, the “direct activation of the PPARgamma-LBD / recruiting of the LXXLL peptide” value in experiment [1] (concentrations of up to 50 μM) is listed as “does not result in any direct activation”. In experiment [2], the “stimulation of aP2 expression, factor” value was 3.1±0.3. The “SPA signal, bound 3H-rosiglitazone (MW)” value in experiment [3] (1.00E−04 M test substance) came to 545; in experiment [3] (1.00E−05 M test substance), 703; in experiment [3] (1.00E−06 M test substance) it was 818; in experiment [3] (1.00E−07 M test substance), 837; in experiment [3] (3.00E−05 M test substance) it was 691; in experiment [3] (3.00E−06 M test substance) it was 818. Moreover, the “SPA signal, bound 3H-rosiglitazone (MW)” value in experiment [3] (3.00E−07 M test substance) is given as 802. Moreover, the “differentiation of 3T3-L1 adipocytes” value in the experiment with 3T3-L1 adipocytes is recorded as “promoted”. Also, the “accumulation of lipids (Oil Red-O staining)” value with 3T3-L1 adipocytes (10 μmol/L, day 4) is given as “increased accumulation of lipids”.
